Data as given in paper PMC8778670, “Identification of an Orally Bioavailable, Brain-Penetrant Compound with Selectivity for the Cannabinoid Type 2 Receptor” (Molecules, 2022).

Assay: Stability studies under physiological pH
Format: physicochemical
Conditions: 4k compared to 4q, data not reported

## O=C1c2ccc(Cl)cc2N/C(=N/N=C/c2cc3ccccc3s2)[C@@H]2CCCN12 [Compound 4k]
  tolerance under physiological pH (stability): better tolerance
